Test results as given in US9980943B2, “Methods of treating muscular dystrophy” (BOARD OF REGENTS OF THE NEVADA SYSTEM OF HIGHER EDUCATION, …, priority 2013, dated 2018).

Experiments:
Assay type in all cases: cell-based, mouse
[1] = test system: β-galactosidase in CMV-LacZ C2C12 myotubes; test: CMV-LacZ secondary screen in C2C12 myotubes (β-Gal stabilizing assay); settings: C2C12 CMV-LacZ myotubes, fold relative to DMSO
Summary of the method: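 β-gal stabilization was measured in C2C12 myoblasts or myotubes stably transfected with a CMV-driven LacZ construct, using the FDG β-gal assay. Compounds were tested in dose-response at 0.5, 1, 5, 10, 20 and 40 μM, with two replicates per point.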

[2] = test system: α7 integrin (LacZ reporter in α7βgal+/− myoblasts); test: Myoblast α7+/LacZ integrin FDG assay (Burkin assay in myoblasts, 96-well); settings: α7+/LacZ myoblasts, 96-well
[3] = test system: α7 integrin (LacZ reporter in α7+/LacZ myotubes); test: Myotube α7 integrin FDG assay (Burkin assay in myotubes, 96-well); settings: myotubes
[4] = test system: β-galactosidase in CMV-LacZ C2C12 myoblasts; test: CMV-LacZ secondary screen in C2C12 myoblasts (β-Gal stabilizing assay); settings: CMV-LacZ C2C12 myoblasts
Summary of the method: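 β-Gal level was the read-out, measured in a clonal C2C12 line expressing LacZ from a CMV promoter. Dose-response curves used six concentrations, 0.5 μM up to 40 μM, with duplicate points.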

Compound	CMV-LACZ in Myotubes, signal relative to DMSO ([1]; 0.5 uM)	CMV-LACZ in Myotubes, signal relative to DMSO ([1]; 1 uM)	CMV-LACZ in Myotubes, signal relative to DMSO ([1]; 5 uM)	CMV-LACZ in Myotubes, signal relative to DMSO ([1]; 10 uM)	CMV-LACZ in Myotubes, signal relative to DMSO ([1]; 20 uM)	CMV-LACZ in Myotubes, signal relative to DMSO ([1]; 40 uM)	Burkin Assay in Myoblasts, signal relative to DMSO ([2]; 0.5 uM)	Burkin Assay in Myoblasts, signal relative to DMSO ([2]; 1 uM)	Burkin Assay in Myoblasts, signal relative to DMSO ([2]; 5 uM)	Burkin Assay in Myoblasts, signal relative to DMSO ([2]; 10 uM)	Burkin Assay in Myoblasts, signal relative to DMSO ([2]; 20 uM)	Burkin Assay in Myoblasts, signal relative to DMSO ([2]; 40 uM)	Burkin Assay in Myotubes, α7 integrin LacZ reporter signal relative to DMSO ([3]; 0.5 uM)	Burkin Assay in Myotubes, α7 integrin LacZ reporter signal relative to DMSO ([3]; 1 uM)	Burkin Assay in Myotubes, α7 integrin LacZ reporter signal relative to DMSO ([3]; 5 uM)	Burkin Assay in Myotubes, α7 integrin LacZ reporter signal relative to DMSO ([3]; 10 uM)	Burkin Assay in Myotubes, α7 integrin LacZ reporter signal relative to DMSO ([3]; 20 uM)	Burkin Assay in Myotubes, α7 integrin LacZ reporter signal relative to DMSO ([3]; 40 uM)	CMV-LACZ in Myoblasts (β-galactosidase activity relative to DMSO) ([4]; 0.5 uM)	CMV-LACZ in Myoblasts (β-galactosidase activity relative to DMSO) ([4]; 1 uM)	also measured
CCN(CC)C(=O)c1sc2nc(-c3ccc(OC)cc3)cn2c1C [MLS000089464-01]	0.9716	1.3716	0.9400	0.9529	1.3067	1.0178	0.9965	0.9802	0.934	0.7825	0.5631	0.3911	1.063	1.029	1.128	0.9917	0.9545	0.8373	0.9117	0.9160	CMV-LACZ in Myoblasts (β-galactosidase activity relative to DMSO) ([4]; 5 uM): 0.9372; CMV-LACZ in Myoblasts (β-galactosidase activity relative to DMSO) ([4]; 10 uM): 1.1969; CMV-LACZ in Myoblasts (β-galactosidase activity relative to DMSO) ([4]; 20 uM): 0.7500; CMV-LACZ in Myoblasts (β-galactosidase activity relative to DMSO) ([4]; 40 uM): 0.5274
COc1ccc(C(=O)Nc2ccc(Cl)cn2)cc1Cl [MLS000089748-01]	0.9527	0.9809	1.1104	0.9813	1.3800	1.2820	1.145	1.168	0.8656	0.7355	0.2402	0.1766	1.043	0.9139	0.8675	0.8026	0.7715	0.7415	1.2129	0.8592	CMV-LACZ in Myoblasts (β-galactosidase activity relative to DMSO) ([4]; 5 uM): 1.0665; CMV-LACZ in Myoblasts (β-galactosidase activity relative to DMSO) ([4]; 10 uM): 0.9905; CMV-LACZ in Myoblasts (β-galactosidase activity relative to DMSO) ([4]; 20 uM): 0.3140; CMV-LACZ in Myoblasts (β-galactosidase activity relative to DMSO) ([4]; 40 uM): 0.4437
CCOC(=O)c1sc(=N)n(-c2ccc(OC)cc2)c1C [MLS000090135-01]	1.0155	1.1036	0.7503	1.0114	1.1100	1.1840	1.227	1.166	0.988	1.018	0.6029	0.3956	1.042	0.9598	0.8747	0.9078	0.8015	0.8215	1.0896	0.9421	CMV-LACZ in Myoblasts (β-galactosidase activity relative to DMSO) ([4]; 5 uM): 0.9731; CMV-LACZ in Myoblasts (β-galactosidase activity relative to DMSO) ([4]; 10 uM): 0.9296; CMV-LACZ in Myoblasts (β-galactosidase activity relative to DMSO) ([4]; 20 uM): 0.6017; CMV-LACZ in Myoblasts (β-galactosidase activity relative to DMSO) ([4]; 40 uM): 0.3653
Cc1cccc(Cn2cnc3c(nnn3Cc3ccc(Cl)cc3)c2=O)c1 [MLS000092785-01]	0.9105	1.0143	1.0185	1.0738	1.0400	1.0500	0.9544	1.035	1.1703	0.9343	0.7833	0.6509	1.027	0.9662	1.02	0.8586	0.8293	0.8225	0.8600	1.1653	CMV-LACZ in Myoblasts (β-galactosidase activity relative to DMSO) ([4]; 5 uM): 0.9882; CMV-LACZ in Myoblasts (β-galactosidase activity relative to DMSO) ([4]; 10 uM): 0.7351; CMV-LACZ in Myoblasts (β-galactosidase activity relative to DMSO) ([4]; 20 uM): 1.1004; CMV-LACZ in Myoblasts (β-galactosidase activity relative to DMSO) ([4]; 40 uM): 0.3235
N#Cc1ccc(Sc2nc3ccccc3[nH]2)cc1C#N [MLS000110418-01]	1.0333	0.9000	0.9617	0.9599	1.0459	1.3647	1.3095	1.079	1.249	1.12	1.004	0.8889	1.073	1.0975	1.017	0.943	0.9939	0.8855	0.8871	0.9989	CMV-LACZ in Myoblasts (β-galactosidase activity relative to DMSO) ([4]; 5 uM): 1.0913; CMV-LACZ in Myoblasts (β-galactosidase activity relative to DMSO) ([4]; 10 uM): 0.9455; CMV-LACZ in Myoblasts (β-galactosidase activity relative to DMSO) ([4]; 20 uM): 0.8926; CMV-LACZ in Myoblasts (β-galactosidase activity relative to DMSO) ([4]; 40 uM): 0.7141
CCCS(=O)(=O)c1nc(S(=O)(=O)c2ccc(C)cc2)c(N2CCCC2)s1 [MLS000113985-01]	1.0629	1.0638	1.0031	1.0241	1.0541	1.0482	1.065	1.018	0.7898	0.4804	0.1779	0.122	0.9882	1.037	0.9919	0.9925	0.7655	0.6679	0.9809	1.0049	CMV-LACZ in Myoblasts (β-galactosidase activity relative to DMSO) ([4]; 5 uM): 1.0836; CMV-LACZ in Myoblasts (β-galactosidase activity relative to DMSO) ([4]; 10 uM): 0.9187; CMV-LACZ in Myoblasts (β-galactosidase activity relative to DMSO) ([4]; 20 uM): 0.2126; CMV-LACZ in Myoblasts (β-galactosidase activity relative to DMSO) ([4]; 40 uM): 0.1841
